# Target: T1, Cytochrome P450 1B1 (Homo sapiens, UniProt Q16678)
# T1 sequence (Q16678 whole entry): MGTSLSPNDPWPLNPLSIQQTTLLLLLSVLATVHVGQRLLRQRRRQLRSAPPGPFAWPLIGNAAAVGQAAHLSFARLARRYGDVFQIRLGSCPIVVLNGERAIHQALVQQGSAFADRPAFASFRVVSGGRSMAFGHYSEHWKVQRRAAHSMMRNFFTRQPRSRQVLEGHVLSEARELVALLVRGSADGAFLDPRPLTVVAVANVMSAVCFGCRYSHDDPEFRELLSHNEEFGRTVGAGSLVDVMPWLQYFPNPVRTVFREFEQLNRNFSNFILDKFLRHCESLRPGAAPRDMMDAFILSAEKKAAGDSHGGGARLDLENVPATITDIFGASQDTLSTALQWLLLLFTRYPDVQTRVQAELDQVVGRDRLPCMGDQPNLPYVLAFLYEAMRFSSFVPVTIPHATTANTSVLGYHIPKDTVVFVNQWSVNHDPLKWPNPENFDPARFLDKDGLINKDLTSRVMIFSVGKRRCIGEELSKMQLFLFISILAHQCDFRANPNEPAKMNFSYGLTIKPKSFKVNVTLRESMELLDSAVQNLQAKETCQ
# Test: Inhibition of recombinant human CYP1B1 expressed in HEK293 cells using 7-ethoxyresorufin as substrate pretreated for 30 mins followed by substrate addition measured for 60 mins by fluorescence assay
# Format: cell-based
row,SMILES,IC50 [µM]
1,CCOc1cc(/C=C/C(=O)c2ccncc2)cc(OCC)c1OCC,9.92
2,COc1ccc(/C=C/C(=O)c2ccncc2)cc1,8.52
3,CCOc1cc(/C=C/C(=O)c2ccncc2)cc(OC)c1OC,4.76

# Compounds with a lower IC50, results first:
row,IC50 [µM],SMILES
1,3.52,O=C(/C=C/c1ccc2c(c1)OCO2)c1ccncc1
2,0.75,O=C(/C=C/c1cccc2ccccc12)c1ccncc1

# Species: Homo sapiens
# Test: Selectivity ratio of IC50 for recombinant human CYP1B1 expressed in HEK293 cells to IC50 for recombinant human CYP1A1 expressed in HEK293 cells
# Format: cell-based
row,SMILES,Ratio IC50
1,CCOc1cc(/C=C/C(=O)c2ccncc2)cc(OCC)c1OCC,< 10
2,CCOc1cc(/C=C/C(=O)c2ccncc2)cc(OC)c1OC,< 10

# Target: T2, Cytochrome P450 1A1 (Homo sapiens, UniProt P04798)
# T2 sequence (P04798 whole entry): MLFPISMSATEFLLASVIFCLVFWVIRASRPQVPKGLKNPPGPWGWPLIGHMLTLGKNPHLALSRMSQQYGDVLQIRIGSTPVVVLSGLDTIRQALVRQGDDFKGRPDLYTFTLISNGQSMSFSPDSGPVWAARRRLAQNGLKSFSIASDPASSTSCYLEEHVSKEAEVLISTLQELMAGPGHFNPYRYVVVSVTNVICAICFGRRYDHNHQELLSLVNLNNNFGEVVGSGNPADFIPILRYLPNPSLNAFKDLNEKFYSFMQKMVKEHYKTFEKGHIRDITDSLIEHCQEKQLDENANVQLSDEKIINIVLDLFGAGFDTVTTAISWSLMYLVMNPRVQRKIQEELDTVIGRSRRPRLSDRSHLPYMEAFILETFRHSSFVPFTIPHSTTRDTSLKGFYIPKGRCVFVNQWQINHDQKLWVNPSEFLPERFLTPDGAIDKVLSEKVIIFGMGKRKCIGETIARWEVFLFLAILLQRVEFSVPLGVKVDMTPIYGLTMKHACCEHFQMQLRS
# Test: Inhibition of recombinant human CYP1A1 expressed in HEK293 cells using 7-ethoxyresorufin as substrate pretreated for 30 mins followed by substrate addition measured for 60 mins by fluorescence assay
# Format: cell-based
row,SMILES,IC50 [µM]
1,CCOc1cc(/C=C/C(=O)c2ccncc2)cc(OCC)c1OCC,0.092
2,COc1ccc(/C=C/C(=O)c2ccncc2)cc1,6.61
3,CCOc1cc(/C=C/C(=O)c2ccncc2)cc(OC)c1OC,0.063

# Results, then the compound that gave them:
row,IC50 [µM],SMILES
1,1.12,O=C(/C=C/c1ccc2c(c1)OCO2)c1ccncc1
2,0.55,O=C(/C=C/c1cccc2ccccc12)c1ccncc1

# Target: T3, Cytochrome P450 2C9 (Homo sapiens, UniProt P11712)
# Test: Inhibition of human CYP2C9 expressed in yeast microsomal membranes using 3-cyano-7-ethoxycoumarin as substrate measured after 10 mins by fluorescence assay
# Format: ADME, cell membranes, Microsomal Membrane
# T3 sequence (P11712 whole entry): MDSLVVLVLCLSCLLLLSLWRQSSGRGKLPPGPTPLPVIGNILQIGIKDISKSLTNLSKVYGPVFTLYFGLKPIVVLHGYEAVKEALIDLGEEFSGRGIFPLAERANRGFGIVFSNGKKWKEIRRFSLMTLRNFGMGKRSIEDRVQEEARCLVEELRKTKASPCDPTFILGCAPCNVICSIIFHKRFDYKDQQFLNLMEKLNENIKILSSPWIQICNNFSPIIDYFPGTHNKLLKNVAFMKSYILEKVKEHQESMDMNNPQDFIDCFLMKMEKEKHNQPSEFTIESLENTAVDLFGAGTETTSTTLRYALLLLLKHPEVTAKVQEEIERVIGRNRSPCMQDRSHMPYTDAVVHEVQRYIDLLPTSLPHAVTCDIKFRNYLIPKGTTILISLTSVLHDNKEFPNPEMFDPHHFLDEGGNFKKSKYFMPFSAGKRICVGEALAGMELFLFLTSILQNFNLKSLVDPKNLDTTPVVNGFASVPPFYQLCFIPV
row,SMILES,IC50 [µM]
1,CCOc1cc(/C=C/C(=O)c2ccncc2)cc(OCC)c1OCC,> 20
2,COc1ccc(/C=C/C(=O)c2ccncc2)cc1,> 20
3,CCOc1cc(/C=C/C(=O)c2ccncc2)cc(OC)c1OC,> 20

# More lines, now with the values ahead:
row,IC50 [µM],SMILES
1,> 20,O=C(/C=C/c1ccc2c(c1)OCO2)c1ccncc1
2,> 20,O=C(/C=C/c1cccc2ccccc12)c1ccncc1

# Target: T4, Cytochrome P450 1A2 (Homo sapiens, UniProt P05177)
# T4 sequence (P05177 whole entry): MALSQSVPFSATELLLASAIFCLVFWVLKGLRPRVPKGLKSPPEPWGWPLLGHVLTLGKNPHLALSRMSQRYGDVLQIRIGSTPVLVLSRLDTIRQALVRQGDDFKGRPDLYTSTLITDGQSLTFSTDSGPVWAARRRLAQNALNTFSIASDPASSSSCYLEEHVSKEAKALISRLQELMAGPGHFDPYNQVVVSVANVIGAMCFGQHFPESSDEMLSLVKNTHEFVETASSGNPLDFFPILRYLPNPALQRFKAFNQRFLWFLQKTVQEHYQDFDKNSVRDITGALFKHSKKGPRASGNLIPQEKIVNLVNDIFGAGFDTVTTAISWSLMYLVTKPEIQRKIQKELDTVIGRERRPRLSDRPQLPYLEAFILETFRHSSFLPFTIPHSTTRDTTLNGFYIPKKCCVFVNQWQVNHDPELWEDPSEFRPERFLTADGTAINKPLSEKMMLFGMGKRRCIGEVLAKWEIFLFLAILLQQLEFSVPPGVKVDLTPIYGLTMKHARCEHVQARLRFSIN
# Test: Inhibition of recombinant human CYP1A2 expressed in HEK293 cells using 3-cyano-7-ethoxycoumarin as substrate pretreated for 30 mins followed by substrate addition measured for 60 mins by fluorescence assay
# Format: ADME
row,SMILES,IC50 [µM]
1,CCOc1cc(/C=C/C(=O)c2ccncc2)cc(OCC)c1OCC,1.09
2,COc1ccc(/C=C/C(=O)c2ccncc2)cc1,12
3,CCOc1cc(/C=C/C(=O)c2ccncc2)cc(OC)c1OC,1.53

# Other lines, results leading:
row,IC50 [µM],SMILES
1,1.5,O=C(/C=C/c1ccc2c(c1)OCO2)c1ccncc1
2,0.028,O=C(/C=C/c1cccc2ccccc12)c1ccncc1

# Target: T5, Cytochrome P450 2C19 (Homo sapiens, UniProt P33261)
# Test: Inhibition of recombinant human CYP2C19 expressed in HEK293 cells using 3-cyano-7-ethoxycoumarin as substrate pretreated for 30 mins followed by substrate addition measured for 60 mins by fluorescence assay
# Format: ADME
# T5 sequence (P33261 whole entry): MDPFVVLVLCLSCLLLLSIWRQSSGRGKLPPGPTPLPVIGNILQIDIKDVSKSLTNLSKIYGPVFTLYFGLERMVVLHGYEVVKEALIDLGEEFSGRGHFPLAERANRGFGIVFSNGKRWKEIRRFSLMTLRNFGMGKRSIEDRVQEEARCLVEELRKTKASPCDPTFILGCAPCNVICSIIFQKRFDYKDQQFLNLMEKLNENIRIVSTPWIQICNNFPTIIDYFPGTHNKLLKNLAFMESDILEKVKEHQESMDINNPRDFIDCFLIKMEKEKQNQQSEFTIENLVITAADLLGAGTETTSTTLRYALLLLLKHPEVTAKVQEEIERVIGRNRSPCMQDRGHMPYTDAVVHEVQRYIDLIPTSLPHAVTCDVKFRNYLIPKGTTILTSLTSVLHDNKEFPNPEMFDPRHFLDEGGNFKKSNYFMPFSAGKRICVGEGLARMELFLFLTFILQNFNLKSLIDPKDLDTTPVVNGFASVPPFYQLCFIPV
row,SMILES,IC50 [µM]
1,CCOc1cc(/C=C/C(=O)c2ccncc2)cc(OCC)c1OCC,> 10
2,COc1ccc(/C=C/C(=O)c2ccncc2)cc1,> 10
3,CCOc1cc(/C=C/C(=O)c2ccncc2)cc(OC)c1OC,> 10

# The remaining lines, values ahead:
row,IC50 [µM],SMILES
1,> 10,O=C(/C=C/c1ccc2c(c1)OCO2)c1ccncc1
2,> 10,O=C(/C=C/c1cccc2ccccc12)c1ccncc1

# Target: T6, Cytochrome P450 3A4 (Homo sapiens, UniProt P08684)
# Test: Inhibition of human CYP3A4 expressed in yeast microsomal membranes using dibenzylfluorescein as substrate measured after 10 mins by fluorescence assay
# Format: ADME, cell membranes, Microsomal Membrane
# T6 sequence (P08684 whole entry): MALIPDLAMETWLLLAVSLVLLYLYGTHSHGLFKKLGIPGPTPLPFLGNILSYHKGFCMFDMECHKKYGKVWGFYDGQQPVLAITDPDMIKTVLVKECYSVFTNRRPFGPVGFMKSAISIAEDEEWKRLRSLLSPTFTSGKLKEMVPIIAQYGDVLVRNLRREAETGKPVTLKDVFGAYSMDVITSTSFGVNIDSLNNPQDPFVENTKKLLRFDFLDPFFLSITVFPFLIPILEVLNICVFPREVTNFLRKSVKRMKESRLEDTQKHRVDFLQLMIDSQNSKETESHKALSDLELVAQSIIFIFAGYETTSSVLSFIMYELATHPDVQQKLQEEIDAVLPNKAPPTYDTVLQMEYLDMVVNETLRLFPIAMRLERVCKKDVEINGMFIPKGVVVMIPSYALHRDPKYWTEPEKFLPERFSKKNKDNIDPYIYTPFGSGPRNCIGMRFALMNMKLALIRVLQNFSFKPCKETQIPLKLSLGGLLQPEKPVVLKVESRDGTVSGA
row,SMILES,IC50 [µM]
1,CCOc1cc(/C=C/C(=O)c2ccncc2)cc(OCC)c1OCC,> 20
2,COc1ccc(/C=C/C(=O)c2ccncc2)cc1,> 20
3,CCOc1cc(/C=C/C(=O)c2ccncc2)cc(OC)c1OC,> 20

# Further lines, results first:
row,IC50 [µM],SMILES
1,> 20,O=C(/C=C/c1ccc2c(c1)OCO2)c1ccncc1
2,> 20,O=C(/C=C/c1cccc2ccccc12)c1ccncc1

# Target: T6, Cytochrome P450 3A4
# Test: Inhibition of recombinant human CYP3A4 expressed in HEK293 cells using dibenzylfluorescein as substrate pretreated for 30 mins followed by substrate addition measured for 60 mins by fluorescence assay
# Format: ADME
row,SMILES,IC50 [µM]
1,CCOc1cc(/C=C/C(=O)c2ccncc2)cc(OCC)c1OCC,> 10
2,COc1ccc(/C=C/C(=O)c2ccncc2)cc1,> 10
3,CCOc1cc(/C=C/C(=O)c2ccncc2)cc(OC)c1OC,> 10

# Second part, the compound after the results:
row,IC50 [µM],SMILES
1,> 10,O=C(/C=C/c1ccc2c(c1)OCO2)c1ccncc1
2,> 10,O=C(/C=C/c1cccc2ccccc12)c1ccncc1

# Target: T1, Cytochrome P450 1B1
# Test: Inhibition of human CYP1B1 expressed in yeast microsomal membranes using 7-ethoxyresorufin as substrate measured after 10 mins by fluorescence assay
# Format: cell membranes
row,SMILES,IC50 [µM]
1,CCOc1cc(/C=C/C(=O)c2ccncc2)cc(OCC)c1OCC,8.62
2,COc1ccc(/C=C/C(=O)c2ccncc2)cc1,7
3,CCOc1cc(/C=C/C(=O)c2ccncc2)cc(OC)c1OC,3.81

# Next, values leading:
row,IC50 [µM],SMILES
1,2.11,O=C(/C=C/c1ccc2c(c1)OCO2)c1ccncc1
2,0.65,O=C(/C=C/c1cccc2ccccc12)c1ccncc1

# Species: Homo sapiens
# Test: Selectivity ratio of IC50 for recombinant human CYP1A2 expressed in HEK293 cells to IC50 for recombinant human CYP1A1 expressed in HEK293 cells
# Format: cell-based
row,SMILES,Ratio IC50
1,CCOc1cc(/C=C/C(=O)c2ccncc2)cc(OCC)c1OCC,< 10
2,CCOc1cc(/C=C/C(=O)c2ccncc2)cc(OC)c1OC,< 10

# Target: T2, Cytochrome P450 1A1
# Test: Inhibition of human CYP1A1 expressed in yeast microsomal membranes using 7-ethoxyresorufin as substrate measured after 10 mins by fluorescence assay
# Format: cell membranes
row,SMILES,IC50 [µM]
1,CCOc1cc(/C=C/C(=O)c2ccncc2)cc(OCC)c1OCC,0.092
2,COc1ccc(/C=C/C(=O)c2ccncc2)cc1,6.31
3,CCOc1cc(/C=C/C(=O)c2ccncc2)cc(OC)c1OC,0.063

# The remaining lines, values ahead:
row,IC50 [µM],SMILES
1,1.12,O=C(/C=C/c1ccc2c(c1)OCO2)c1ccncc1
2,0.51,O=C(/C=C/c1cccc2ccccc12)c1ccncc1

# Target: T7, Cytochrome P450 2D6 (Homo sapiens, UniProt P10635)
# Test: Inhibition of recombinant human CYP2D6 expressed in HEK293 cells using 7-ethoxy-methyloxy-3-cyanocoumarin as substrate pretreated for 30 mins followed by substrate addition measured for 60 mins by fluorescence assay
# Format: ADME, cell-based
# T7 sequence (P10635 whole entry): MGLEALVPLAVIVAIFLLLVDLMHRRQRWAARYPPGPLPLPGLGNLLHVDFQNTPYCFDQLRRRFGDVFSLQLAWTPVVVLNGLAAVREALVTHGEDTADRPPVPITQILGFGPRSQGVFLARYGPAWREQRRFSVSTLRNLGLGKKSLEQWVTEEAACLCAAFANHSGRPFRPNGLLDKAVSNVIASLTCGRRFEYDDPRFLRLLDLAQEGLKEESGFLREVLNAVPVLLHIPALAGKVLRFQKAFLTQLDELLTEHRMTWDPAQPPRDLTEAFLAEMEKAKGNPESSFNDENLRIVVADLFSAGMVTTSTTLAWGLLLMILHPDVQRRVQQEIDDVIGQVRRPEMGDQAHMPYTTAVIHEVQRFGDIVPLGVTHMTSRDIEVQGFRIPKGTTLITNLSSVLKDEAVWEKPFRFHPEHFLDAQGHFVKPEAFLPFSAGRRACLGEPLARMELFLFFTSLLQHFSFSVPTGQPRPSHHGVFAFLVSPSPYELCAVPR
row,SMILES,IC50 [µM]
1,CCOc1cc(/C=C/C(=O)c2ccncc2)cc(OCC)c1OCC,> 10
2,COc1ccc(/C=C/C(=O)c2ccncc2)cc1,> 10
3,CCOc1cc(/C=C/C(=O)c2ccncc2)cc(OC)c1OC,> 10

# Next, values leading:
row,IC50 [µM],SMILES
1,> 10,O=C(/C=C/c1ccc2c(c1)OCO2)c1ccncc1
2,> 10,O=C(/C=C/c1cccc2ccccc12)c1ccncc1

# Target: T7, Cytochrome P450 2D6
# Test: Inhibition of human CYP2D6 expressed in yeast microsomal membranes using 7-ethoxy-methyloxy-3-cyanocoumarin as substrate measured after 10 mins by fluorescence assay
# Format: ADME, cell membranes, Microsomal Membrane
row,SMILES,IC50 [µM]
1,CCOc1cc(/C=C/C(=O)c2ccncc2)cc(OCC)c1OCC,14
2,COc1ccc(/C=C/C(=O)c2ccncc2)cc1,15
3,CCOc1cc(/C=C/C(=O)c2ccncc2)cc(OC)c1OC,17

# The next lines start with the values.
row,IC50 [µM],SMILES
1,12,O=C(/C=C/c1ccc2c(c1)OCO2)c1ccncc1
2,18,O=C(/C=C/c1cccc2ccccc12)c1ccncc1

# Target: T3, Cytochrome P450 2C9
# Test: Inhibition of recombinant human CYP2C9 expressed in HEK293 cells using 3-cyano-7-ethoxycoumarin as substrate pretreated for 30 mins followed by substrate addition measured for 60 mins by fluorescence assay
# Format: ADME
row,SMILES,IC50 [µM]
1,CCOc1cc(/C=C/C(=O)c2ccncc2)cc(OCC)c1OCC,> 10
2,COc1ccc(/C=C/C(=O)c2ccncc2)cc1,> 10
3,CCOc1cc(/C=C/C(=O)c2ccncc2)cc(OC)c1OC,> 10

# Second part, the compound after the results:
row,IC50 [µM],SMILES
1,> 10,O=C(/C=C/c1ccc2c(c1)OCO2)c1ccncc1
2,> 10,O=C(/C=C/c1cccc2ccccc12)c1ccncc1

# Target: T4, Cytochrome P450 1A2
# Test: Inhibition of human CYP1A2 expressed in yeast microsomal membranes using 3-cyano-7-ethoxycoumarin as substrate measured after 10 mins by fluorescence assay
# Format: ADME, cell membranes, Microsomal Membrane
row,SMILES,IC50 [µM]
1,CCOc1cc(/C=C/C(=O)c2ccncc2)cc(OCC)c1OCC,1.19
2,COc1ccc(/C=C/C(=O)c2ccncc2)cc1,12
3,CCOc1cc(/C=C/C(=O)c2ccncc2)cc(OC)c1OC,1.32

# The next lines start with the values.
row,IC50 [µM],SMILES
1,1.5,O=C(/C=C/c1ccc2c(c1)OCO2)c1ccncc1
2,0.035,O=C(/C=C/c1cccc2ccccc12)c1ccncc1

# Target: T5, Cytochrome P450 2C19
# Test: Inhibition of human CYP2C19 expressed in yeast microsomal membranes using 3-cyano-7-ethoxycoumarin as substrate measured after 10 mins by fluorescence assay
# Format: ADME, cell membranes, Microsomal Membrane
row,SMILES,IC50 [µM]
1,CCOc1cc(/C=C/C(=O)c2ccncc2)cc(OCC)c1OCC,> 20
2,COc1ccc(/C=C/C(=O)c2ccncc2)cc1,> 20
3,CCOc1cc(/C=C/C(=O)c2ccncc2)cc(OC)c1OC,> 20

# Now from value to compound:
row,IC50 [µM],SMILES
1,> 20,O=C(/C=C/c1ccc2c(c1)OCO2)c1ccncc1
2,> 20,O=C(/C=C/c1cccc2ccccc12)c1ccncc1
